Test results reported in patent US20220039384A1, “SELECTIVE WEED CONTROL WITH HALAUXIFEN OR 4-AMINO-3-CHLORO-5-FLUORO-6-(4-CHLORO-2-FLUORO-3-METHOXYPHENYL) PYRIDINE-2-CARBOXYLIC ACID OR DERIVATIVES THEREOF IN VINEYARDS OR PERENNIAL CROPS” (Corteva Agriscience LLC, priority 2013, published 2022).

Columns and labels:
[1] = system: commercially relevant broadleaf and grass weeds; assay: Pre- and post-emergence weed control, general statement; format: in vivo; details: application rate of 2.5 to 50 g ai/ha; pre-emergence or post-emergence application
Excerpt: (§1) Additional examples of application rates for Compound I as a pre-emergence and post-emergence application include 0.25 to 50 g ae/ha, 0.25 to 45 g ae/ha, 0.25 to 40 g ae/ha, 0.25 to 35 g ae/ha, 0.25 to 30 g ae/ha, 0.25 to 25 g ae/ha, 0.25 to 20 g ae/ha, 0.25 to 15 g ae/ha, 0.25 to 10 g ae/ha, 0.25 to 5 g ae/ha, 2.5 to 50 g ae/ha, 5 to 50 g ae/ha, 10 to 50 g ae/ha, 15 to 50 g ae/ha, 20 to 50 g ae/ha, 25 to 50 g ae/ha, 30 to 50 g ae/ha, 35 to 50 g ae/ha, 40 to 50 g ae/ha, 45 to 50 g ae/ha, 5 to 40 g ae/ha, 10 to 40 g ae/ha, 15 to 40 g ae/ha, 20 to 40 g ae/ha, 25 to 40 g ae/ha, 30 to 40 g ae/ha, 35 to 40 g ae/ha, 2.5 to 35 g ae/ha, 2.5 to 30 g ae/ha, 2.5 to 25 g ae/ha, 2.5 to 20 g ae/ha, 2.5 to 15 g ae/ha, 2.5 to 10 g ae/ha, 2.5 to 5 g ae/ha, 5 to 35 g ae/ha, 10 to 30 g ae/ha, 15 to 25 g ae/ha, and 15 to 20 g ae/ha. Further examples of application rates for Compound I as a pre-emergence and post-emergence application include 0.25 g ae/ha, 0.5 g ae/ha, 0.75 g ae/ha, 1 g ae/ha, 1.25 g ae/ha, 1.5 g ae/ha, 1.75 g ae/ha, 2 g ae/ha, 2.25 g ae/ha, 2.5 g ae/ha, 3 g ae/ha, 4 g ae/ha, 5 g ae/ha, 6 g ae/ha, 7 g ae/ha, 8 g ae/ha, 9 g ae/ha, 10 g ae/ha, 12 g ae/ha, 14 g ae/ha, 16 g ae/ha, 18 g ae/ha, 20 g ae/ha, 22 g ae/ha, 24 g ae/ha, 26 g ae/ha, 28 g ae/ha, 30 g ae/ha, 32 g ae/ha, 34 g ae/ha, 36 g ae/ha, 38 g ae/ha, 40 g ae/ha, 42 g ae/ha, 44 g ae/ha, 46 g ae/ha, 48 g ae/ha, and 50 g ae/ha. […]

[2] = system: grapevines and perennial crops; assay: Crop safety, general statement; format: in vivo; details: post-emergence application rates of ≤20 g ae/ha; dormant application or spring application directed under the crops
Excerpt: as §1

VITSS (Vitis spp, grape) = details: in vivo
Protocol: Small plot research experiments were conducted in Fresno, Calif., USA to evaluate the pre-emergence and post-emergence herbicidal weed control activity and the vines crop tolerance to pre-emergence and post-emergence application of Compound I and Compound II to the weeds. Application water volume of 100 to 187 liters per hectare (L/ha) was used for all experiments. All treatments were applied with a standard small plot carbon dioxide (CO2) backpack sprayer. All treatments were tank-mixed with Crop Oil Concentrate (COC), a well known adjuvant, at 2.34 L/ha. Experimental emulsifiable concentrate (EC) formulations were used for Compounds I and II. The dimethylammonium (DMA) salt of glyphosate was used in all trials. Pindar® GT is a commercial formulation containing a pre-mix of penoxsulam+oxyfluorfen (10+476 grams of active ingredient per liter (g ai/L), respectively). Vine crop stage was dormant (no leaves on the vines during the winter) or early spring growth at the time of Compound I or Compound II application. Generally, weeds were not emerged for the pre-emergence treatments or were at the two to six-leaf stage at the time of the post-emergence herbicide application. […]

[3] = system: PANCA (Panicum capillare, witchgrass); assay: Field trial, post-emergence directed spring application (April), California vineyards: visual weed control; format: in vivo; details: 35 g ai/ha
Excerpt: (§2) As used herein, selective pre- and post-emergence control of undesirable vegetation means preventing, reducing, killing, or otherwise adversely modifying the development of the undesirable vegetation in the presence of crop plants with limited adverse effect on the crop plants. For example, a broadleaf weed control of 80% (rated visually) with crop injury of less than or equal to 20% (rated visually) would constitute selective control. In some embodiments the adverse effect on crop plants is limited to less than 10% visually rated crop injury. Visual crop injury is a composite rating accounting for all phytotoxic effects including chlorosis, necrosis, growth inhibition, epinasty, delays in maturity and seed or fruit deformity. Visual weed control is a composite rating accounting for reductions in pest plant biomass and/or stand reduction.
(§3) Small plot research experiments were conducted in Fresno, Calif., USA to evaluate the pre-emergence and post-emergence herbicidal weed control activity and the vines crop tolerance to pre-emergence and post-emergence application of Compound I and Compound II to the weeds. Application water volume of 100 to 187 liters per hectare (L/ha) was used for all experiments. All treatments were applied with a standard small plot carbon dioxide (CO2) backpack sprayer. All treatments were tank-mixed with Crop Oil Concentrate (COC), a well known adjuvant, at 2.34 L/ha. Experimental emulsifiable concentrate (EC) formulations were used for Compounds I and II. The dimethylammonium (DMA) salt of glyphosate was used in all trials. Pindar® GT is a commercial formulation containing a pre-mix of penoxsulam+oxyfluorfen (10+476 grams of active ingredient per liter (g ai/L), respectively). Vine crop stage was dormant (no leaves on the vines during the winter) or early spring growth at the time of Compound I or Compound II application. Generally, weeds were not emerged for the pre-emergence treatments or were at the two to six-leaf stage at the time of the post-emergence herbicide application.
(§4) Tables 1, 2 and 6 provide weed control results from pre-emergence applications of Compounds I and/or II prior to weed emergence; Tables 4, 7 and 8 provide weed control results from post-emergence applications of Compounds I and/or II applied to actively growing weeds; Tables 3 and 5 provide vine response data from pre-emergence and post-emergence applications of Compound I respectively.

[4] = system: MALPA (Malva parviflora, smallflower malva); assay: as above; format: in vivo; details: 35 g ai/ha
Excerpt: as §2, §3, §4

[5] = system: EROCI (Erodium cicutarium, redstem filaree); assay: as above; format: in vivo; details: 35 g ai/ha
Excerpt: as §2, §3, §4

[6] = system: SETFA (Setaria faberi, giant foxtail); assay: as above; format: in vivo; details: 35 g ai/ha
Excerpt: as §2, §3, §4

[7] = system: AGRRE (Agropyron repens, quackgrass); assay: as above; format: in vivo; details: 35 g ai/ha
Excerpt: as §2, §3, §4

[8] = system: ERIBO (Conyza bonariensis, hairy fleabane); assay: as above; format: in vivo; details: 35 g ai/ha
Excerpt: as §2, §3, §4

Structure (SMILES)	efficacy on commercially relevant broadleaf and grass weeds [1]	crop injury to grapevines and perennial crops [2]	VITSS 60 DAA Node Count (VITSS (Vitis spp, grape))	VITSS 60 DAA Vine Length (cm) (VITSS (Vitis spp, grape))	% Visual Control 60 DAA PANCA [3]	% Visual Control 60 DAA MALPA [4]	% Visual Control 60 DAA EROCI [5]	% Visual Control 60 DAA SETFA [6]	% Visual Control 60 DAA AGRRE [7]	% Visual Control 60 DAA ERIBO [8]
COc1c(Cl)ccc(-c2nc(C(=O)O)c(Cl)c(N)c2F)c1F [Compound II, 4-amino-3-chloro-5-fluoro-6-(4-chloro-2-fluoro-3-methoxyphenyl)pyridine-2-carboxylic acid]	highly efficacious	little to no crop injury								
COc1cnc(OC)n2nc(NS(=O)(=O)c3c(OCC(F)F)cccc3C(F)(F)F)nc12 [Penoxsulam, reference compound]			20	89 cm	85%	85%	87%	97%	87%	85%
